# Assay results published in US8252832B2, “Kinesin inhibitors as cancer therapeutics” (Novartis AG, priority 2007, dated 2012).
# Where two headings read alike, the source gives them in different places.
# Key:
# [1] = test system: AML-193; test: CellTiter-Glo, hematologic malignancy panel; format: cell-based
# Excerpt: (§1) Identification of tumor types that are the most sensitive to the KSP inhibitors of the present invention can be accomplished using an unbiased approach that uses several cell-based assays. The assays chosen were as follows: • CellTiter-Glo®. This is an assay designed to measure ATP concentration in a cell culture, and can be correlated to cell number. Briefly CellTiter-Glo® (Promega Corporation) is a homogeneous method using the single CellTiter-Glo® reagent to detect ATP wherein ATP in the assay drives the activity of a thermostable luciferase to create a luminescent signal which can then be measured and correlated with the number of viable cells. Briefly, for adherent cells, 1,000 to 5,000 cells/well were plated in 96-well plates (100 μl/well) and let to adhere for 24 hours before being treated with drug. For non-adherent cells, 1,000 to 10,000 cells/well were plated in 96-well plates (100 μl/well) and immediately treated with drug. Drug dilutions were prepared in DMSO at 1000 times the final concentration. These dilutions were then diluted 1/100 in growth media before being added to the cells (11 μl/well) to achieve the desired final concentration. After 48 h in a 37° C. tissue culture incubator, the plates were processed for the CellTiter-Glo®assay according to the manufacturer's instructions. Protocol for a 72 hour cell proliferation assay: The 72 hour assay was performed the same way as the 48 hour assay except for the following modifications: For adherent cells, 500 to 5,000 cells/well were plated in 96-well plates (90 μl/well cell growth media) and left to adhere for 24 hours before being treated with drug. For non-adherent cells, 1,000 to 10,000 cells/well were plated in 96-well plates (90 μl/well cell growth media) and immediately treated with drug. Data values presented represent the concentration of test compound required for a 50% reduction in growth. • LDH release. The Cytotoxicity Detection KitPLUS (LDH) assay (Roche Diagnostics, Manheim, Germany) measures the amount of LDH released in the media by dying cells; LDH catalyzes the conversion of lactate into pyruvate. The enzymatic reaction is coupled to a chemical reaction that uses a tetrazolium salt to form a formazan that is red and can be detected by its absorbance at 490 nm. This assay measures the amount of cell death after drug treatment. Cells were plated at 10,000 cells/well in 96-well plates (100 μl/well). Adherent cells were let to adhere for 24 hours before being treated with drug, whereas non-adherent cells were immediately treated with drug. Drug dilutions were prepared in DMSO at 1000 times the final concentration. These dilutions were then diluted 1/100 in growth media before being added to the cells (11 μl/well) to achieve the desired final concentration. After 48 h in a 37° C. tissue culture incubator, the plates were processed for the Cytotoxicity Detection KitPLUS (LDH) assay according to the manufacturer's instructions. The media only values were subtracted from all the data points before analysis. Data values presented correspond to the compound concentration wherein LDH output is at half maximal level. • Caspase-Glo® 3/7. The Caspase-Glo® 3/7 Assay (Promega Corporation) is a homogeneous luminescent assay that measures caspase-3/7 activities. The assay provides a proluminescent caspase-3/7 DEVD-aminoluciferin substrate and a thermostable luciferase in a reagent optimized for caspase-3/7 activity, luciferase activity and cell lysis. Adding the single Caspase-Glo® 3/7 Reagent results in cell lysis, followed by caspase cleavage of the substrate. This liberates free aminoluciferin, which is consumed by the luciferase, generating a luminescent signal. The signal is proportional to caspase-3/7 activity. Data values presented correspond to the compound concentration wherein caspase 3/7 activity is at half maximal level. […]
# [2] = test system: CCRF-CEM; test: CellTiter-Glo, hematologic malignancy panel; format: cell-based; settings: ALL; for GI50: Homo sapiens
# Excerpt: as §1
# [3] = test system: HL60-Luc; test: CellTiter-Glo, hematologic malignancy panel; format: cell-based; settings: AML; for GI50: HL-60-Luc
# Excerpt: as §1
# [4] = test system: MOLM13-Luc; test: CellTiter-Glo, hematologic malignancy panel; format: cell-based; settings: AML
# Excerpt: as §1
# [5] = test system: MOLT-4; test: CellTiter-Glo, hematologic malignancy panel; format: cell-based; settings: ALL; for GI50: Homo sapiens
# Excerpt: as §1
# [6] = test system: RPMI-8226; test: CellTiter-Glo, hematologic malignancy panel; format: cell-based; settings: MM; for GI50: Homo sapiens
# Excerpt: as §1
# [7] = test system: SEM-Luc; test: CellTiter-Glo, hematologic malignancy panel; format: cell-based; settings: ALL
# Excerpt: as §1
# [8] = test system: SET-2; test: CellTiter-Glo, hematologic malignancy panel; format: cell-based; settings: AML; for GI50: Homo sapiens
# Excerpt: as §1
# [9] = test system: U937; test: CellTiter-Glo, hematologic malignancy panel; format: cell-based; settings: for GI50: Homo sapiens, U-937, NHL
# Excerpt: as §1
# [10] = MV4; 11-luc disseminated disease model, host response; format: in vivo, mouse; settings: q4d × 3, i.v
# Description: The efficacy study in the disseminated disease model was performed using immunodeficient NOD-SCID female mice approximately 7-8 weeks old (Jackson Laboratories, Bar Harbor, Me.). […] Routine animal care and assurance of welfare were as described above. […] Doses were adjusted to each animal's body weight. […] Approximately 10 minutes prior to imaging, mice were injected i.p. with 150 mg/kg luciferin (Xenogen Corporation, Alameda, Calif.), followed by anesthetization with isoflurane. Photon emission was measured using a charge coupled device camera in the IVIS imaging system (Xenogen Corporation). Briefly, a gray-scale image of the mice was captured, followed by an overlay of a bioluminescence map representing the spatial distribution of photons detected from cleaved luciferin in the cancer cells expressing luciferase. Signal intensity was quantified using a customized version of the IGOR Pro version 4.09A Software (WaveMetrics, Inc., Lake Oswego, Oreg.) called Living Image version 2.50.2 (Xenogen). The sum of all detected photon counts from the dorsal+ventral views was determined. Bioluminescence of cancer cells in the animals was measured by imaging on designated days until the first mice developed hind limb paralysis due to disease burden, the main end point for when to humanely euthanize mice. The day of euthanasia for each mouse was recorded and the remaining percentage of mice surviving was plotted over time (Kaplan-Meier survival analysis). P values were calculated using the log-rank test (GraphPad Prism 4.0 software) to assess differences between treated and control groups (p<0.05 was considered significant). […] Data analysis was performed as described above.
# [11] = GI50 in nM, read-out: Log(GI50) (converted)
structure (smiles),measurement,setting,value
CC(C)(C)[C@H](c1nc(-c2cc(F)ccc2F)cn1Cc1ccccc1)N(CC[C@H](N)CF)C(=O)CO [Compound IIa],Differential vs mean Log(GI50),[1],0.489
same,GI50,[1]; [11],0.11 nM
same,GI50,[1]; read-out: GI50,0.11 nM
same,Differential vs mean Log(GI50),[2],0.315
same,GI50,[2]; [11],0.164 nM
same,GI50,[2]; read-out: GI50,0.16 nM
same,Differential vs mean Log(GI50),[3],−0.173
same,GI50,[3]; [11],0.505 nM
same,GI50,[3]; read-out: GI50,0.51 nM
same,Differential vs mean Log(GI50),[4],0.175
same,GI50,[4]; [11],0.226 nM
same,GI50,[4]; read-out: GI50,0.23 nM
same,Differential vs mean Log(GI50),[5],0.010
same,GI50,[5]; [11],0.331 nM
same,GI50,[5]; read-out: GI50,0.33 nM
same,GI50,[6]; [11],0.262 nM
same,GI50,[6]; read-out: GI50,0.26 nM
same,Differential vs mean Log(GI50),[6],0.112
same,Differential vs mean Log(GI50),[7],0.354
same,GI50,[7]; [11],0.15 nM
same,GI50,[7]; read-out: GI50,0.15 nM
same,Differential vs mean Log(GI50),[8],−0.001
same,GI50,[8]; [11],0.34 nM
same,GI50,[8]; read-out: GI50,0.34 nM
same,GI50,[9]; [11],0.2 nM
same,GI50,[9]; read-out: GI50,0.2 nM
same,Differential vs mean Log(GI50),[9]; NHL,0.229
same,"% Max. Δ body weight, (Day)","[10]; 0.25 mg/kg, D5",5.6 ± 1.3%
same,Max. Δ body weight (g) (Day),"[10]; 0.25 mg/kg, D5",1.1 ± 0.44 g
same,"% Max. Δ body weight, (Day)","[10]; 0.5 mg/kg, D10",−2.6 ± 2.3%
same,Max. Δ body weight (g) (Day),"[10]; 0.5 mg/kg, D10",-0.57 ± 0.45 g
same,"% Max. Δ body weight, (Day)","[10]; 1 mg/kg, D10",−4.2 ± 1.7%
same,Max. Δ body weight (g) (Day),"[10]; 1 mg/kg, D10",-0.77 ± 0.32 g
